Assay results as given in ChEMBL document CHEMBL1201862, “PubChem BioAssay data set” (2004).
Active and inactive are the calls of the source.

What was measured:
Assay type in all cases: functional
[1] = target: 72 kDa type IV collagenase (Homo sapiens, UniProt P08253); test: Dose Response validation of uHTS RPN11 inhibitor hits using a MMP-2 Fluorescence assay.
[2] = target: T1, Apoptotic protease-activating factor 1 (Homo sapiens, UniProt O14727); test: SAR analysis of small molecule inhibitors of Apaf-1 in a Fluorescent assay.; conditions: read-out: IC50_Mean
T1 sequence (O14727 whole entry): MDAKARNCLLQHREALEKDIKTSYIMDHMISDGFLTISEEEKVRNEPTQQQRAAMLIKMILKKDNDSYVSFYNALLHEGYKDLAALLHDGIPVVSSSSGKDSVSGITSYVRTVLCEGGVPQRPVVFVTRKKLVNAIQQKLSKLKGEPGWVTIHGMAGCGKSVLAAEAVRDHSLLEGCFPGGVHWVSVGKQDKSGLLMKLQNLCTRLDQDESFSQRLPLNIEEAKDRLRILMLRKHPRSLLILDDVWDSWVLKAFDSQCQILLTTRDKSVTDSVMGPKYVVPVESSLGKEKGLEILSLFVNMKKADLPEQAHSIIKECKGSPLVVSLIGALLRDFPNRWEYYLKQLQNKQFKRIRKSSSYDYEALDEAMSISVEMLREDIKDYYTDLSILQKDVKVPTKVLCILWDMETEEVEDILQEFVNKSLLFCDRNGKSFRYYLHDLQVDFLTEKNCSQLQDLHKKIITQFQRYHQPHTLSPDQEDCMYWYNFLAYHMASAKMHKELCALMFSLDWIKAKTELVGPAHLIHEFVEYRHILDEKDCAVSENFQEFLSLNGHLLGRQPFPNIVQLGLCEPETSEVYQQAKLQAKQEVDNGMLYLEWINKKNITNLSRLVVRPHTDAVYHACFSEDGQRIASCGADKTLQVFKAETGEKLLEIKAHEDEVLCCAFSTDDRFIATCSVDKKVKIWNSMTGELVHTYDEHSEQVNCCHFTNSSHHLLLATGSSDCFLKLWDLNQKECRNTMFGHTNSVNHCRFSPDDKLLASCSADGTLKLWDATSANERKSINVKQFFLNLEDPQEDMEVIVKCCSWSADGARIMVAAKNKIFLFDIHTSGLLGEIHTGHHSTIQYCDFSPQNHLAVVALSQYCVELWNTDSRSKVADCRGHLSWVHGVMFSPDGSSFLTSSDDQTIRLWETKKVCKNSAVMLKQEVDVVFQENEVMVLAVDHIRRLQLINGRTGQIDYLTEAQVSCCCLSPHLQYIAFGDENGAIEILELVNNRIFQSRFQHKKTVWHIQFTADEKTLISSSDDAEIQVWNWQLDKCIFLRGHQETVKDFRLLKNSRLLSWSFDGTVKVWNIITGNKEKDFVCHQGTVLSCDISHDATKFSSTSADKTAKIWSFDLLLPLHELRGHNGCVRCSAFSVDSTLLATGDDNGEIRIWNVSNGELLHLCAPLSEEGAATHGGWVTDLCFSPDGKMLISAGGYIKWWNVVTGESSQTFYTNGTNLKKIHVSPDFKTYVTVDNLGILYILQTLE

[3] = target: 26S proteasome non-ATPase regulatory subunit 14 (Homo sapiens, UniProt O00487); test: inhibition of proteasome subunit RPN11 – biochemical, fluorescence polarization, uHTS hits, confirmation (AID 602368)
[4] = target: T2, Ubiquitin-conjugating enzyme E2 N (Homo sapiens, UniProt P61088)
T2 sequence (P61088 whole entry): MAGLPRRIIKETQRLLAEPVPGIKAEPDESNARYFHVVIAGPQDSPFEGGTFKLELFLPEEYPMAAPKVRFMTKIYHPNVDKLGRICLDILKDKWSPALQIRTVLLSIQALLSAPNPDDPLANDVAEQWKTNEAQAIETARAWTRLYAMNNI

[5] = target: T3, Small ubiquitin-related modifier 1 (Homo sapiens, UniProt P63165); test: SUMO1 protein-protein binding blockers, potency – biochemical, FRET, dose response (AID 624383); conditions: read-out: IC50_Mean
T3 sequence (P63165 whole entry): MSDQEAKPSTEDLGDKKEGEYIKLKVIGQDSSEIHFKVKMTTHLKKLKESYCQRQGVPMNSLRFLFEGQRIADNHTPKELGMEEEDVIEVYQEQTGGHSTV

[6] = microbe, parasite or virus in culture; conditions: Mycobacterium tuberculosis
[7] = target: T3, Small ubiquitin-related modifier 1; test: SUMO1 protein interaction blockers, potency – biochemical, fluorescence polarization, uHTS hits, dose response (AID 624382); conditions: read-out: IC50_Mean
Prothrombin = Prothrombin (Bos taurus, UniProt P00735); test: thrombin protease inhibitors – biochemical, fluorescence polarization, uHTS hits, dose response (AID 602369)
[8] = target: T2, Ubiquitin-conjugating enzyme E2 N; remark: listed apart in the source
INS1 = test: INS-1E survival protection against cytokine death – cell-based, luminescence, retest, dose response (AID 449756); conditions: Rattus norvegicus;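 note: cell death triggered by IL-1 beta plus TNF-alpha plus IFN-gamma mixture; protective hits raise ATP signal compared with cytokine alone wells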
[9] = target: T1, Apoptotic protease-activating factor 1
[10] = target: T4, Rac GTPase-activating protein 1 (Homo sapiens, UniProt Q9H0H5); test: blockers of MgcRacGAP-driven Rac1 GTP hydrolysis – biochemical, ADP Hunter fluorescence, primary and confirmatory, confirmation (AID 624330)
T4 sequence (Q9H0H5 whole entry): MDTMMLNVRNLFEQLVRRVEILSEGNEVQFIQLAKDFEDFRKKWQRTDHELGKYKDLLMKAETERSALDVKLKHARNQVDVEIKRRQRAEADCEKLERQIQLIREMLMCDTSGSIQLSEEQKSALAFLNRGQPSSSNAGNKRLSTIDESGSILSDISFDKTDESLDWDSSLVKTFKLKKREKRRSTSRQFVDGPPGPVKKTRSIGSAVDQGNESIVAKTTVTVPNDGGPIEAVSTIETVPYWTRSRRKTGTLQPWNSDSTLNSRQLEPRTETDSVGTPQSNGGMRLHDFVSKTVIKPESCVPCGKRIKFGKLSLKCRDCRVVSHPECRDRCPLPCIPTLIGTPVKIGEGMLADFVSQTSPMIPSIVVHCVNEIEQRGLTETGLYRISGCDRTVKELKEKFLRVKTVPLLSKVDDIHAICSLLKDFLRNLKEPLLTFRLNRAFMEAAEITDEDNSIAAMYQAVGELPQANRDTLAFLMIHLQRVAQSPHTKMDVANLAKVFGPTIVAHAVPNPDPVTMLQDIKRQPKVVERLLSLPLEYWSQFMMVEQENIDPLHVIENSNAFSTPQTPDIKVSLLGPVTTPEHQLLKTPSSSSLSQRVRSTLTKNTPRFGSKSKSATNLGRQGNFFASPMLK

Bcl-2-related protein A1 = target: T5, Bcl-2-related protein A1 (Mus musculus, UniProt Q07440);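 note: confirmatory dose–response counterscreen on Bfl-1, used to check hits from a UBC13 polyubiquitin inhibitor campaign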
T5 sequence (Q07440 whole entry): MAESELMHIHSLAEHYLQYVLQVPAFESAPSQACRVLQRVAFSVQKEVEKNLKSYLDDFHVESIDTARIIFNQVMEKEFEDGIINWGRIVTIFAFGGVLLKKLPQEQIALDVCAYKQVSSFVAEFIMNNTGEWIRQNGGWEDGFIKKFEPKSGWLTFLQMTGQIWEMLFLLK

Lethal factor = Lethal factor (Bacillus anthracis, UniProt P15917); test: High-throughput multiplex microsphere dose response for inhibitors of toxin protease, specifically Lethal Factor protease, compounds from Cherry Pick 02.; conditions: read-out: EC50_MICROM
Sequence of Lethal factor (P15917 whole entry): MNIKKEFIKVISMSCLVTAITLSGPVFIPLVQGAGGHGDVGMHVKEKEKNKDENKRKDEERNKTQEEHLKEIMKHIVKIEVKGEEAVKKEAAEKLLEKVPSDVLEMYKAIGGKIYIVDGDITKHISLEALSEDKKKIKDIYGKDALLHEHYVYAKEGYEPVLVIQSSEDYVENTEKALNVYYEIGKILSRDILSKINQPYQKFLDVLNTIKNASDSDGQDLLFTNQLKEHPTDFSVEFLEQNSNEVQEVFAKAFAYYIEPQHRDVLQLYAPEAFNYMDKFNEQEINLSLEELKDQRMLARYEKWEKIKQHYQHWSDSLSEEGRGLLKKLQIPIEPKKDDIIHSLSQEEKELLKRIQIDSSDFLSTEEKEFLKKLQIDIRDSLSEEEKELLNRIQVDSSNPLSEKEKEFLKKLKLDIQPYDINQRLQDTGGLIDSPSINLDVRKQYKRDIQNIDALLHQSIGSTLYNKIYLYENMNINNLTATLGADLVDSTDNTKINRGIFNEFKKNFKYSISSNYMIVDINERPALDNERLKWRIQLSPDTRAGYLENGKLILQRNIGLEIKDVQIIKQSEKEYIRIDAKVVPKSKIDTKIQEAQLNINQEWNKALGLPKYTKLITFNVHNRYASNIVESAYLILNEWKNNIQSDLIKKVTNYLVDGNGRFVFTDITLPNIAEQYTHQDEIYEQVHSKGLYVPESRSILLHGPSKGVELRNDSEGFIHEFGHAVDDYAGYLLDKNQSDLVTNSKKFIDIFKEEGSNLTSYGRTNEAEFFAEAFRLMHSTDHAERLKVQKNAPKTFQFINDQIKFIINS

[11] = target: T6, Botulinum neurotoxin type A (Clostridium botulinum (strain Hall / ATCC 3502 / NCTC 13319 / Type A), UniProt P0DPI1); test: High-throughput multiplex microsphere dose response for inhibitors of toxin protease, specifically Botulinum neurotoxin light chain A protease, compounds from Cherry Pick 02.; conditions: read-out: EC50_MICROM
T6 sequence (P0DPI1 2-448 limits assumed): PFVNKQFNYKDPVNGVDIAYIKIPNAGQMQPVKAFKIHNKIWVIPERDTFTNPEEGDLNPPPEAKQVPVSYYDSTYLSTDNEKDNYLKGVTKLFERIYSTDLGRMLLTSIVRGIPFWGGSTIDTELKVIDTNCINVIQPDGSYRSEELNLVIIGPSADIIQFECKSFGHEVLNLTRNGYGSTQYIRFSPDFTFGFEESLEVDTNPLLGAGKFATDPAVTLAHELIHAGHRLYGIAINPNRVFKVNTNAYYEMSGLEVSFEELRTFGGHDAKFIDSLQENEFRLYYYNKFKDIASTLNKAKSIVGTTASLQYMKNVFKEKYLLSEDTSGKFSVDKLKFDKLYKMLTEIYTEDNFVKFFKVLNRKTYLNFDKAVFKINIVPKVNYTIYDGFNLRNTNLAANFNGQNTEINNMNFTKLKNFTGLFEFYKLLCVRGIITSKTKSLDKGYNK

[12] = target: Botulinum neurotoxin type F (Clostridium botulinum, UniProt P30996); test: High-throughput multiplex microsphere dose response for inhibitors of toxin protease, specifically Botulinum neurotoxin light chain F protease, compounds from Cherry Pick 02.; conditions: read-out: EC50_MICROM
[13] = target: T6, Botulinum neurotoxin type A; test: High-throughput multiplex microsphere dose response for inhibitors of toxin protease, specifically Botulinum neurotoxin light chain A protease, compounds from Cherry Pick 01.; conditions: read-out: EC50_MICROM
Aurora kinase B = Aurora kinase B (Homo sapiens, UniProt Q96GD4)
[14] = target: Leukocyte tyrosine kinase receptor (Homo sapiens, UniProt P29376); test: Navigating the Kinome. Panel member name: LTK
[15] = target: Calcium/calmodulin-dependent protein kinase type II subunit alpha (Homo sapiens, UniProt Q9UQM7); test: Navigating the Kinome. Panel member name: CAMK2A
Sequence of Calcium/calmodulin-dependent protein kinase type II subunit alpha (Q9UQM7 whole entry): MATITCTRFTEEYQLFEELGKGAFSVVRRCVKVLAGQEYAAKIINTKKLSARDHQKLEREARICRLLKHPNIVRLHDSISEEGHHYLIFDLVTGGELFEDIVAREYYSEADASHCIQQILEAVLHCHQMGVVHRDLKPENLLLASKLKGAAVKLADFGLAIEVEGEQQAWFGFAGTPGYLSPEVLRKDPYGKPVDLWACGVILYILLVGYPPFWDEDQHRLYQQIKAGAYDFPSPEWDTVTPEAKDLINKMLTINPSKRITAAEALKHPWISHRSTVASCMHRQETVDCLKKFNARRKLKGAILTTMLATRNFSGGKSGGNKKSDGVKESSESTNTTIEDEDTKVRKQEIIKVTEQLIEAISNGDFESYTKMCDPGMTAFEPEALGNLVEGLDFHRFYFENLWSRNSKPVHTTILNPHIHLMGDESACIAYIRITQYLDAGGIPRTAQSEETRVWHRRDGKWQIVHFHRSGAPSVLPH

[16] = target: Cyclin-dependent kinase 8 (Homo sapiens, UniProt P49336); test: Navigating the Kinome. Panel member name: CDK8
[17] = target: Death-associated protein kinase 3 (Homo sapiens, UniProt O43293);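 note: measured as one member of a kinome-wide profiling panel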
[18] = target: Inhibitor of nuclear factor kappa-B kinase subunit epsilon (Homo sapiens, UniProt Q14164); test: Navigating the Kinome. Panel member name: IKBKE
[19] = target: Macrophage colony-stimulating factor 1 receptor (Homo sapiens, UniProt P07333);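 note: value comes from the Navigating the Kinome screening panel, CSF1R member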
Sequence of Macrophage colony-stimulating factor 1 receptor (P07333 whole entry): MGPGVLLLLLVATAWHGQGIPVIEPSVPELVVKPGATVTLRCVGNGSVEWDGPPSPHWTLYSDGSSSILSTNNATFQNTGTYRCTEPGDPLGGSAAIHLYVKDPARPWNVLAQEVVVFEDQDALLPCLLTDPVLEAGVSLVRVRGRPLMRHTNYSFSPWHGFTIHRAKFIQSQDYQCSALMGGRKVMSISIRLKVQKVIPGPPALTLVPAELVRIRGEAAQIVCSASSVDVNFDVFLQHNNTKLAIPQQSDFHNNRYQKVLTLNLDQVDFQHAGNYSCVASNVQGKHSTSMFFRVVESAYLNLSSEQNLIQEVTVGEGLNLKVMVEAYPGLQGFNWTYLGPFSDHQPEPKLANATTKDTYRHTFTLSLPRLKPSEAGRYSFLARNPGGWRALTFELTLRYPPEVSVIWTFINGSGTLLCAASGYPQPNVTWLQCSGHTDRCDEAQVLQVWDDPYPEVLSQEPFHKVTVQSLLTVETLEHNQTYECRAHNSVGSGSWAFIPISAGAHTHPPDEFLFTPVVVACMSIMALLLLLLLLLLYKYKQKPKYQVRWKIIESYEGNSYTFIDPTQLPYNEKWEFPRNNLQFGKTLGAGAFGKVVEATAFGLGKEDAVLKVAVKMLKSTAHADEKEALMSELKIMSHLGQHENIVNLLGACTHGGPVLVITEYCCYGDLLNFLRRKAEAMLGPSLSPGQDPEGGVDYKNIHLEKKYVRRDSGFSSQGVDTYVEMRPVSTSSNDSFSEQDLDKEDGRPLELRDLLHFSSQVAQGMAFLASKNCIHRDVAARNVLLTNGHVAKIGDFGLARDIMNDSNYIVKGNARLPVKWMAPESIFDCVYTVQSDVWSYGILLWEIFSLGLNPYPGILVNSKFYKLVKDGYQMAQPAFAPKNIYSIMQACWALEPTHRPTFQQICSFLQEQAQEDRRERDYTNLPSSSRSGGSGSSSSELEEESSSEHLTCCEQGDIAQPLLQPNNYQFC

[20] = target: Vascular endothelial growth factor receptor 2 (Homo sapiens, UniProt P35968)
[21] = target: Serine/threonine-protein kinase Chk1 (Homo sapiens, UniProt O14757);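 note: measured as one member of a kinome-wide kinase profiling panel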
Sequence of Serine/threonine-protein kinase Chk1 (O14757 whole entry): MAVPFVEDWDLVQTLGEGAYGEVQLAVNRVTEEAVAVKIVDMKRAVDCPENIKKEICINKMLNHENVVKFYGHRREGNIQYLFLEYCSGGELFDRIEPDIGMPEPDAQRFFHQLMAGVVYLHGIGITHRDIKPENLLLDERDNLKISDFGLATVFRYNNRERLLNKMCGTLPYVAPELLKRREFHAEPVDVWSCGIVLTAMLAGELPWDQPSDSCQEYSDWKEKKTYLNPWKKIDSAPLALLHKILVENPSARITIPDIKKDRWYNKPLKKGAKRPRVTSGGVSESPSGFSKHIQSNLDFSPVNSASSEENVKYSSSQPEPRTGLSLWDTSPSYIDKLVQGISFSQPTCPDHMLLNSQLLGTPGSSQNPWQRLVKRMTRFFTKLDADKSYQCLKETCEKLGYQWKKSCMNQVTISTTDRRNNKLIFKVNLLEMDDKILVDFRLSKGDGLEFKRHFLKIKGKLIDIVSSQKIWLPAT

Aurora kinase A = Aurora kinase A (Homo sapiens, UniProt O14965);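 note: value from the Navigating the Kinome kinase panel profiling, panel entry STK6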
[22] = target: Tyrosine-protein kinase receptor TYRO3 (Homo sapiens, UniProt Q06418);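 note: TYRO3 value obtained as one member of a kinome-wide profiling panel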
Sequence of Tyrosine-protein kinase receptor TYRO3 (Q06418 whole entry): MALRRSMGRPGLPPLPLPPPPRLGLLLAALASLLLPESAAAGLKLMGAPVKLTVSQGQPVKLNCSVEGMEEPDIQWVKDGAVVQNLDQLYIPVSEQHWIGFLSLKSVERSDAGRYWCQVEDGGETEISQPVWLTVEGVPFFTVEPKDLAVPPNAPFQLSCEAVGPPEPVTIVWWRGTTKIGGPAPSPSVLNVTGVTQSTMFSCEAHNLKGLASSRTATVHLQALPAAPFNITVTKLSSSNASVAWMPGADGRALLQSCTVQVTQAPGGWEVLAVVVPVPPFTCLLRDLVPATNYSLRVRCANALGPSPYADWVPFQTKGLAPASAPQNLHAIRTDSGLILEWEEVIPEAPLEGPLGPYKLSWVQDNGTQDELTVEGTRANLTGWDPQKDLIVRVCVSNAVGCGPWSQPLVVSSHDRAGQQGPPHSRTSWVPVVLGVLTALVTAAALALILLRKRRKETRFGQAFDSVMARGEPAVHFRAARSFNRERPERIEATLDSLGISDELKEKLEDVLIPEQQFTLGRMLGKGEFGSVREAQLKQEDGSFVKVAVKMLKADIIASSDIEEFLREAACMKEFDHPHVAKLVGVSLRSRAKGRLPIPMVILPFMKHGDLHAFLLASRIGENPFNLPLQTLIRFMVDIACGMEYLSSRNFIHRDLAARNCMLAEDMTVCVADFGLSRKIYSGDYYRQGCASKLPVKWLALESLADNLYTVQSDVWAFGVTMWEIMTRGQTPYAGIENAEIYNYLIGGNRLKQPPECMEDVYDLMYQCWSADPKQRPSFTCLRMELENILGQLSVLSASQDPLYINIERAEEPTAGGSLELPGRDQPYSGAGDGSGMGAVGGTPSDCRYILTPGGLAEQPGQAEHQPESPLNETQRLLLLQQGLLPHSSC

[23] = target: G protein-coupled receptor kinase 5 (Homo sapiens, UniProt P34947); test: Navigating the Kinome. Panel member name: GPRK5
Sequence of G protein-coupled receptor kinase 5 (P34947 whole entry): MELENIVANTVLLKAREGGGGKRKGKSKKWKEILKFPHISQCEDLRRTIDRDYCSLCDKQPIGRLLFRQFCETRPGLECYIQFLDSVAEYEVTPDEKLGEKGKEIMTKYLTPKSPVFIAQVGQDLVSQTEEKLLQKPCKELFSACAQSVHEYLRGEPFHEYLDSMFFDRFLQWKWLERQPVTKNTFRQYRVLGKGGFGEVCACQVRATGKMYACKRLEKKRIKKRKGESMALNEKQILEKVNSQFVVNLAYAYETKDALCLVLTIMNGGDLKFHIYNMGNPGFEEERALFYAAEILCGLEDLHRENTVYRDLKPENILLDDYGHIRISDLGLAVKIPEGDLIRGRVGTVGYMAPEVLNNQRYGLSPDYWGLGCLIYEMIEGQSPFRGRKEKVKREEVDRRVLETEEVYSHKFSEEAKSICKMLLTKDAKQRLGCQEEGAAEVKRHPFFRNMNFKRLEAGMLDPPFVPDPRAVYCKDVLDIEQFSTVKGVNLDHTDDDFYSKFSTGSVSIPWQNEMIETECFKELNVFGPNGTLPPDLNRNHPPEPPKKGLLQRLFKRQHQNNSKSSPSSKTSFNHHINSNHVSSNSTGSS

[24] = target: Dual specificity tyrosine-phosphorylation-regulated kinase 1B (Homo sapiens, UniProt Q9Y463); test: Navigating the Kinome. Panel member name: DYRK1B
[25] = target: Leucine-rich repeat serine/threonine-protein kinase 2 (Homo sapiens, UniProt Q5S007);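 note: value from a broad kinome-wide panel profiling study in which LRRK2 was one of the kinases tested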
[26] = target: Cyclin-dependent kinase 5 (Homo sapiens, UniProt Q00535);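 note: CDK5 measured as one member of a kinase profiling panel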
[27] = target: Mitogen-activated protein kinase kinase kinase kinase 2 (Homo sapiens, UniProt Q12851);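 note: measured as one member of a kinome-wide kinase panel, with MAP4K2 as the panel entry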
[28] = target: cAMP-dependent protein kinase catalytic subunit PRKX (Homo sapiens, UniProt P51817)
[29] = target: Hepatocyte growth factor receptor (Homo sapiens, UniProt P08581);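 note: kinase panel profiling across the kinome, with MET as the panel member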
[30] = target: Serine/threonine-protein kinase D3 (Homo sapiens, UniProt O94806);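 note: determined within a kinase panel screen, with PRKCN as the panel member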
[31] = target: Dual specificity tyrosine-phosphorylation-regulated kinase 1A (Homo sapiens, UniProt Q13627);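 note: measured against DYRK1A as one member of a broad kinome profiling panel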
[32] = target: Serine/threonine-protein kinase Nek2 (Homo sapiens, UniProt P51955)
[33] = target: cAMP-dependent protein kinase catalytic subunit alpha (Homo sapiens, UniProt P17612)
LIM domain kinase 1 = LIM domain kinase 1 (Homo sapiens, UniProt P53667); test: Navigating the Kinome. Panel member name: LIMK1
[34] = target: Protein kinase C theta type (Homo sapiens, UniProt Q04759); test: Navigating the Kinome. Panel member name: PRKCQ
[35] = target: Casein kinase I isoform alpha (Homo sapiens, UniProt P48729)
Focal adhesion kinase 1 = Focal adhesion kinase 1 (Homo sapiens, UniProt Q05397);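 note: measured as one member of a kinome panel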
[36] = target: Dual specificity protein kinase CLK4 (Homo sapiens, UniProt Q9HAZ1)
[37] = target: Cyclin-dependent kinase 7 (Homo sapiens, UniProt P50613);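 note: value comes from a kinome-wide kinase profiling panel in which CDK7 is one member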
[38] = target: Platelet-derived growth factor receptor beta (Homo sapiens, UniProt P09619);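 note: value comes from a kinome panel, with PDGFRB tested as one panel member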
[39] = target: Proto-oncogene tyrosine-protein kinase receptor Ret (Homo sapiens, UniProt P07949);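 note: measured within a kinome-wide profiling panel, RET as the panel member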
[40] = target: Tyrosine-protein kinase ABL1 (Homo sapiens, UniProt P00519)

In the case of CCN(CC)CCOC(=O)c1ccc(N/C=C(/C#N)c2nc(-c3ccc4c(c3)OCO4)cs2)cc1, the IC50 [1] is reported as > 100 µM (inactive), the IC50 [2] is reported as 6.43 µM (active) and the IC50 [3] is reported as 31.4 µM (active). The IC50 [4] was 5.07 µM (active), the IC50 [5] was 2.13 µM (active) and the CC50 [6] was > 40 µM (active). For the same compound, the IC50 [7] was > 66.6 µM (inactive), the IC50 (Prothrombin) was 56.1 µM (active) and the IC50 [8] was 6.35 µM (active). The AC50 (INS1) was 11 µM (active), the IC50 [9] was 20.7 µM (active) and the IC50 [10] was 120 µM (active). For the same compound, the IC50 (Bcl-2-related protein A1) was 1.72 µM (active).

In the case of CCOCCSc1nc2c(c(-c3cccs3)c1C#N)CC/C2=C/c1cccs1, the EC50 (Lethal factor) is reported as 16.7 µM (active), the EC50 [11] is reported as 17.8 µM (active) and the EC50 [12] is reported as 8 µM (active). The EC50 [13] was 6.4 µM (active).

In the case of CC1=CN2CC(=O)NN=C2C=C1, the Ki (Aurora kinase B) is reported as 79.4 µM (active), the Ki [14] is reported as 31.6 µM (active) and the Ki [15] is reported as 63.1 µM (active). The Ki [16] was 20 µM (active), the Ki [17] was 63.1 µM (active) and the Ki [18] was 100 µM (active). For the same compound, the Ki [19] was > 100 µM (inactive), the Ki [20] was > 100 µM (inactive) and the Ki [21] was 12.6 µM (active). For the same compound, the Ki (Aurora kinase A) was 31.6 µM (active), the Ki [22] was 50.1 µM (active) and the Ki [23] was 50.1 µM (active). The Ki [24] was 25.1 µM (active), the Ki [25] was 31.6 µM (active) and the Ki [26] was 50.1 µM (active). For the same compound, the Ki [27] was 79.4 µM (active), the Ki [28] was 79.4 µM (active) and the Ki [29] was 50.1 µM (active). The Ki [30] was 100 µM (active), the Ki [31] was 12.6 µM (active) and the Ki [32] was 20 µM (active). The Ki [33] was > 50.1 µM (inactive), the Ki (LIM domain kinase 1) was 12.6 µM (active) and the Ki [34] was > 100 µM (inactive). For the same compound, the Ki [35] was 79.4 µM (active), the Ki (Focal adhesion kinase 1) was 79.4 µM (active) and the Ki [36] was 3.16 µM (active). For the same compound, the Ki [37] was 79.4 µM (active), the Ki [38] was > 79.4 µM (inactive) and the Ki [39] was 50.1 µM (active). For the same compound, the Ki [40] was 100 µM (active).
